Results published in patent US20200360331A1, “COMPOSITIONS COMPRISING 15-HEPE AND/OR 15-HETrE AND METHODS OF TREATING OR PREVENTING CARDIOMETABOLIC DISEASE, METABOLIC SYNDROME, AND/OR RELATED DISEASES” (Afimmune Limited, priority 2019, published 2020).
Entries after “also recorded” stand apart in the source; their conditions may differ.

Experiments:
NAFLD patients = assay: Phase IIa NAFLD study: proteomics of blood samples; format: in vivo, human
Text: The study was planned to include 96 evaluable patients with 32 patients randomized per treatment group. […] Exploratory analysis: The exploratory analysis included analysis of lipid and metabolic parameters including total cholesterol, triglycerides, very low-density lipoprotein cholesterol (VLDL-C), low density lipoprotein cholesterol (LDL-C), high density lipoprotein cholesterol (HDL-C), non-high-density lipoprotein cholesterol (non-HDL-C), remnant-like particle cholesterol (RLP-C), fasting glucose, insulin, free fatty acids and hemoglobin A1C (HbA1C). Additional exploratory analysis included high throughput lipidomics and proteomics.

[1] = test system: TGF-β induced epithelial mesenchymal transition (EMT) protein production; assay: TGF-β induced EMT protein production in HepG2 cells; format: cell-based, human; details: increasing doses for 1 hour, then 200 pM TGF-β for 48 hours, listed as 15-HEPE
Method: The effects of 15-HEPE on TGF-β-induced signaling and cellular responses were determined. To test the effect of 15-HEPE on TGF-β-induced signaling, the activities of 15-HEPE to regulate TGF-β-stimulated Smad2 phosphorylation and nuclear translocation, both of which are key signaling events leading to TGF-β-induced cellular responses, were tested. One important biological activity of TGF-β is transcriptional activation of genes responsible for epithelial-mesenchymal transition (EMT), which is a crucial event in wound healing, tissue fibrosis, and cancer progression. The effect of 15-HEPE on TGFβ-induced epithelial mesenchymal transition related proteins (such as fibronectin, PAI-1, and N-cadherin etc.) expression in HepG2 and […] cells were assessed. HepG2 cells (human hepatoma cell line) were treated in increasing doses of 15-HEPE stage II in DMEM containing 0.1% of FBS for 1 hour and continually stimulated with or without 200 picomolar (pM) of TGF-β for 48 hours.
HepG2 cells (human hepatoma cell line) were treated in increasing doses of 15-HEPE stage II in DMEM containing 0.1% of FBS for 1 hour and continually stimulated with or without 200 picomolar (pM) of TGF-β for 48 hours. The two panels shown in FIG. 18A are two separate experiments run under the same experimental conditions.

[2] = UUO study: body weight, kidney weight, general condition; format: in vivo; details: UUO mice
Method: UUO Surgery: On day 0 of the study, UUO surgery was performed on mice under pentobarbital sodium anesthesia. The mouse's hair was first shaved and then abdomen cut open to exteriorize the mouse's left ureter. The ureter was ligated 4-0 nylon sutures at two points. The mouse's peritoneum and skin were then closed with sutures, and the mouse transferred to a clean cage until recovered from the anesthesia. Sham operated mice had their left ureter exposed but not ligated. […]
Animals: Seven-week-old female C57BL/6 mice (i.e., animals) were obtained from Japan SLC, Inc. (Japan) and were housed and fed with a normal diet (CE-2; CLEA Japan, Japan) under controlled conditions. The animals were maintained in a specific-pathogen free (SPF) facility under controlled conditions of temperature (e.g., 23±2° C.), humidity (e.g., 45±10%), lighting (e.g., 12-hour artificial light and dark cycles; light from 8:00 to 20:00) and air exchange. A high pressure was maintained in the experimental room to prevent contamination of the facility. The animals were housed in TPX cages (CLEA Japan) with a maximum of 4 mice per cage. Sterilized Paper-Clean (Japan SLC) was used for bedding and replaced once a week. Sterilized solid normal diet was provided ad libitum, being placed in a metal lid on the top of the cage. Pure water was also provided ad libitum from a water bottle equipped with a rubber stopper and a sipper tube. Water bottles were replaced once a week, cleaned, and sterilized in an autoclave and reused. Mice were identified by ear punch and each cage was labeled with a specific identification code.
Animal Monitoring and Sacrifice: The viability, clinical signs and behavior for the mice were monitored daily. Individual body weight was measured daily before treatment during the treatment period. […] The animals were sacrificed by exsanguination through direct cardiac puncture under isoflurane anesthesia (Pfizer Inc.) at Day 14.

[3] = test system: TβR-I (type I TGF-β receptor); assay: Sucrose density gradient analysis in Mv1Lu cells, TβR-I; format: cell-based, mink
Method: Sucrose gradient ultracentrifugation and confocal microscopy were used to identify 15-HEPE induced microdomain translocation of TGF-β receptors by sucrose. Sucrose density gradient analysis of TGF-β receptors was conducted in the plasma membranes of Mv1Lu cells (mink lung epithelial cell) treated with 100 μM of 15-HEPE and an equal volume of DMSO (dimethyl sulfoxide) at 37° C. for 0, 1, 4, and 24 hours, and the cell lysates from these treated cells were subjected to sucrose density gradient ultracentrifugation. The sucrose gradient fractions were then analyzed by Western blot analysis using anti-TβR-I (type I TGF-β receptor), anti-TβR-II (type II TGF-β receptor), anti-TβR-III (type III TGF-β receptor, betaglycan), anti-EGFR (epidermal growth factor receptor), and anti-caveolin-1 antibodies. The lipid raft/caveolae, and non-lipid raft microdomain localization of TβR-I, TβR-II, TβR-III, EGFR and caveolin-1 in the plasma membrane of untreated cells or cells treated with 15-HEPE were assessed to determine the effects of 15-HEPE on the membrane microdomain localization of the TGF-β receptors. […]

[4] = 50 mg/kg PO QD Day 0-13, Day 14
[5] = 500 mg/kg PO QD Day 0-13, Day 14

CC/C=C\CC(O)/C=C/C=C\C/C=C\C/C=C\CCCC(=O)O (stereo not drawn) [DS102, 15-hydroxy-eicosa-5Z,8Z,11Z,13E,17Z-pentaenoic acid]
TR protein (NAFLD patients; 1 g): significant reductions
NASH drug development targets CCR2/5 signaling, Galectin3, AOC3 (NAFLD patients; 2 g): decreased
number of markers (inflammation, fibrosis, lipid metabolism, apoptosis, chemotaxis) significantly downregulated (NAFLD patients; 2 g, panel of greater than 350 protein biomarkers): over 150
inflammatory and pro-fibrotic proteins (protein expression) (NAFLD patients; 2 g, Bonferroni: PAI-1, TIMP-1, DPP4, TLT2, CCL16, MCP-1, SAA4, PI3/Elafin, TR, LILRB1, TNRSF11A, linear model: TLT2, AOC3, PRSS2): decreased
expression of multiple circulating chemokines (NAFLD patients; NAFLD patients): decreased
expression of multiple proteins associated with increased cardiovascular risk (NAFLD patients; NAFLD patients): decreased
expression of multiple tumor necrosis factor receptor superfamily members (NAFLD patients; NAFLD patients): decreased
expression of multiple vascular adhesion molecules (NAFLD patients; NAFLD patients): decreased
TGF-β induced EMT (pro-fibrotic) protein production [1]: blocks TGF-β induced EMT protein production; also recorded: blocked TGF-β induced pro-fibrotic protein production
Left Kidney Weight [2, 4]: 469 ± 60 mg
Right Kidney Weight [2, 4]: 133 ± 10 mg
Left Kidney Weight [2, 5]: 487 ± 108 mg
Right Kidney Weight [2, 5]: 136 ± 6 mg
abundance of TβR-I proteins ([3]; 100 μM, 0, 1, 4 and 24 hours): did not affect the abundance of TβR-I proteins
translocation of TβR-I to lipid-raft ([3]; 100 μM, 24 hours): induced translocation of TβR-I to lipid-raft
